Results on 5 compounds are retold here after patent US20190192521A1, “Methods of Treating Arid1A-Mutated Cancers With HDAC6 Inhibitors and EZH2 Inhibitors” (The Wistar Institute of Anatomy and Biology, priority 2016, published 2019).

The test system of assay [1] is ovarian clear cell carcinoma cell lines with known ARID1A mutational status. Nature of the assay: colony formation assay, panel of ovarian clear cell carcinoma cell lines with or without ARID1A mutation. Format: cell-based, human. To be noted: 12 days. The protocol:
After 12 days culture, integrated density of colony formed by the indicated cells was quantified using NIH Image J software, and values were normalized to vehicle control. Data represent triplicates from independent experiments. Error bars represent S.E.M. The p-value was calculated via two-tailed t-test.
Indicated ovarian clear cell carcinoma cell lines with known ARID1A mutational status were treated with the indicated concentration of HDAC6 inhibitor CAY10603 or vehicle control in a colony formation assay. After 12 days culture, integrated density of colony formed by the indicated cells was quantified using NIH Image J software, and values were normalized to vehicle control. Data represent triplicates from independent experiments. Error bars represent S.E.M.
Colony formation assays were performed as follows. Cell lines were infected with lentivirus pLKO.1-shRNAs or pLKO.1-control with puromycin selection marker. Infected cells were selected with 1 μg/mL of puromycin for 72 hours and the selected cells were seeded in 12-well or 24-well plates. Cell medium was changed every three days with appropriate drug doses for 14 days or until control wells became confluent. Colonies were washed twice with PBS and fixed with 10% methanol and 10% acetic acid in distilled water. Fixed colonies were stained with 0.005% crystal violet. Integrated density was measured using NIH ImageJ software.

Assay [2] deals with p53 target genes (BAX, PUMA, NOXA, CDKN1A) in ARID1A-mutated TOV21G cells. Nature of the assay: RNA-seq of p53 target genes. Format: cell-based, human. To be noted: 312 nM. The text has this: RNA was extracted and utilized for next generation sequencing (RNA-seq). Expression of p53 target genes known to regulate apoptosis such as BAX, PUMA and NOXA, and known to regulate cell cycle arrest such as CDKN1A were not altered by HDAC6 inhibition in RNA-seq analysis.

Assay [3] has as its system ARID1A-mutated TOV21G and OVISE cells. Nature of the assay: apoptosis (Annexin V, cleaved caspase 3, cleaved PARP p85) in ARID1A-mutated cells. Format: cell-based, human. On the procedure:
FIG. 10 illustrates the finding that HDAC6 inhibition induces apoptosis in ARID1A-inactivated cells. […] Cells were collected and stained for apoptotic markers Annexin V. Apoptotic cells were quantified. Error bars represent standard error of the mean. The p-value was calculated via a two-tailed t-test.
FIG. 11 illustrates the results of the experiments of FIG. 10, but examined for apoptotic markers cleaved caspase 3 and cleaved PARP p85 by immunoblot. GAPDH expression was used as a loading control.
Cells were collected, incubated with an Annexin V-FITC antibody and subjected to flow cytometry analysis. Annexin V-positive cells (apoptotic) were measured with FloJo software. Mean of three independent experiments with S.E.M.
FIG. 78 illustrates percent apoptosis based on Annexin V staining in ARID1A mutated TOV21G cells treated with 1.25 μM ACY1215, 20 μM pan-caspase inhibitor Q-VD-Oph, or a combination for 48 hrs.
FIG. 79 illustrates percent apoptosis based on Annexin V staining in ARID1A mutated TOV21G cells treated with 1.25 μM ACY1215 for 48 hrs with or without knockdown of caspase 3 or caspase 9.
For immunoblotting, protein was isolated as described in Bitler et al. Nat. Med. 2015, 21, 231-238. Briefly, protein was extracted with RIPA buffer (150 mM NaCl, 1% NP40, 0.5% sodium deoxycholate, 0.1% SDS, 50 mM Tris pH 8.0, and 1 mM PMSF). Protein was separated on a SDS-PAGE and transferred to PVDF membrane. For immunoblot of p53 post-translation modifications, cells were treated with a proteasome inhibitor MG132 (10 μM) to stabilize p53 protein.
Annexin V and mitochondria membrane potentials were measured as follows. Phosphatidylserine externalization was detected using an Annexin V staining kit (Life Technologies) following the manufacturer's instructions. To measure change in mitochondria membrane potential cells were treated with 200 nM of tetramethylrhodamine, ethyl ester (TMRE; Abcam) for 15 min at 37° C. Annexin V and TMRE-positive cells were detected using the LSR18 and analyzed with the FlowJo software module.

The target in a further assay is T1, human HDAC6 (Homo sapiens, UniProt Q9UBN7).
T1 construct: made in house
T1 sequence (Q9UBN7 1-1215): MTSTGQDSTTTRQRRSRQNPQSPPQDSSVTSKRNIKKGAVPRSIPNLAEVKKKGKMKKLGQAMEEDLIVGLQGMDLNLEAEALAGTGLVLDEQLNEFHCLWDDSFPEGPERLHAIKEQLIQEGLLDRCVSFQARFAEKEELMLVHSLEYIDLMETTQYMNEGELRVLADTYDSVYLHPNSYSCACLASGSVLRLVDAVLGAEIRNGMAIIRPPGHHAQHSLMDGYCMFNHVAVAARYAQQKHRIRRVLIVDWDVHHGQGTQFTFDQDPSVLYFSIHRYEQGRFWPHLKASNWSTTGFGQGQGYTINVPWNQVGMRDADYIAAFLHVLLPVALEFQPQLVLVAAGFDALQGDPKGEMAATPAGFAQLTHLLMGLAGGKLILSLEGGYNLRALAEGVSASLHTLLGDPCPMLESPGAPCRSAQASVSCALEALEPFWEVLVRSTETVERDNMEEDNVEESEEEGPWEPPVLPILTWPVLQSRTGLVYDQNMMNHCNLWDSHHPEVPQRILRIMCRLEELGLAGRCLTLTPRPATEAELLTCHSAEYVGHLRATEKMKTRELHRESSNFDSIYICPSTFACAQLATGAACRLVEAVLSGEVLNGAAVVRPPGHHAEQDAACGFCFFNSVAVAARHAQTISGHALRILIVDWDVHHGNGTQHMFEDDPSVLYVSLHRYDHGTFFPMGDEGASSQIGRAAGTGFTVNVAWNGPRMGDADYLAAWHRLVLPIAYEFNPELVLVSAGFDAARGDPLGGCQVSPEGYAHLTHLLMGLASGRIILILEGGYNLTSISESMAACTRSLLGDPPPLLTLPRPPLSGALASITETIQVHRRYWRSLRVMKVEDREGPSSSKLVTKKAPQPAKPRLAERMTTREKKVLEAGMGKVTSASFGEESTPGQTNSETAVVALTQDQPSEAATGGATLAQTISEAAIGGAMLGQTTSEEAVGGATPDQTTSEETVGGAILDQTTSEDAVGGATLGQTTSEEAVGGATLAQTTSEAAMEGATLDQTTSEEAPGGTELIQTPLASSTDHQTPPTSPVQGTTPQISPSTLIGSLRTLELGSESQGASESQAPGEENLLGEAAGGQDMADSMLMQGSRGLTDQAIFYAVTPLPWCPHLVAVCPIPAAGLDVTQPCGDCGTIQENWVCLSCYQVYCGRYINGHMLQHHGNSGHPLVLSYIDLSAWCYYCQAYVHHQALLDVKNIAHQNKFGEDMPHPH
Nature of the assay: in vitro biochemical HDAC6 deacetylation assay (LC-MS). On the procedure: Deacetylation reactions were detected by discontinuous liquid chromatography-mass spectrometry (LC-MS). […] All assays were performed in triplicates.
In vitro biochemical HDAC6 deacetylation assays were performed as follows. Activity assay with human HDAC6 was based on a discontinuous liquid chromatography-mass spectrometry (LC-MS) assay as reported in Hai and Christianson, 2016. Briefly, 0.05 μM of HDAC6 was incubated with 100 μM of substrate Ac-LHSGTAK(ac)SVT-COOH in HEPES buffer [20 mM HEPES (pH 7.5), 100 mM NaCl, 5 mM KCl, 1 mM MgCl2] for 20 min at room temperature, and the reaction was quenched by the addition of acetonitrile (equal volume to the reaction solution). […] The assay was run in the presence of 10 μM of HDAC6 specific inhibitor ACY-1215 as a negative control. All the assays were performed in triplicates. The peptide was custom synthesized by Genscript. The human HDAC6 construct was expressed and purified as described in Hai and Christianson, 2016.

Where no end group is shown, it is not given here.

`CC(C)(C)OC(=O)Nc1ccc(-c2cc(C(=O)NCCCCCCC(=O)NO)no2)cc1` [CAY10603, tert-butyl 4-(3-((7-(hydroxyamino)-7-oxoheptyl)carbamoy)isoxazol-5-yl)phenylcarbamate]: in assay [1], the “sensitivity of ARID1A-mutated cells compared with ARID1A wild-type cells” value was “more sensitive”. In addition, the “expression of p53 target genes (BAX, PUMA, NOXA, CDKN1A)” value in assay [2] is given as “not altered”.

Turning to `c1cc(SSc2ccns2)sn1` [NU9056], in assay [3] (TIP60 inhibitor with ACY1215), the “effect on apoptosis induced by ACY1215” value is listed as “suppressed apoptosis” and the p53K120Ac levels result is listed as “reduction of the p53K120Ac levels”.

On to `CC(C)[C@H](NC(=O)c1ccc2ccccc2n1)C(=O)N[C@@H](CC(=O)O)C(=O)COc1c(F)cccc1F` [Q-VD-Oph], for which the “effect on apoptosis induced by ACY1215” value in assay [3] (TOV21G, 20 μM Q-VD-Oph with 1.25 μM ACY1215, 48 hrs) is “significantly suppressed the apoptosis”.

For the compound Ac-LHSGTAK(Ac)SVT, the “specific activity of HDAC6 with this substrate” value at human HDAC6 is on record as 3.4±0.4 nmol product·nmol enzyme^−1·min^−1.

In the case of Ala-Lys(Ac)-Ala-NH2, the “specific activity of HDAC6 with this substrate” value at human HDAC6 is recorded as 10.5±0.5 nmol product·nmol enzyme^−1·min^−1.
